# Measured values reported in paper PMC10174317, “^18F-labeled FGFR1 peptide: a new PET probe for subtype FGFR1 receptor imaging” (Frontiers in Oncology, 2023).
# Primed or numbered codes have the meaning given here. Where no end group is shown, it is not given here. The star is where a group is joined. NOTA = O=C(O)CN1CCN(CC(=O)O)CCN(CC(=O)*)CC1; PEG2′ = not defined here
# T1: FGFR1 (Homo sapiens, UniProt P11362)
# T1 chain: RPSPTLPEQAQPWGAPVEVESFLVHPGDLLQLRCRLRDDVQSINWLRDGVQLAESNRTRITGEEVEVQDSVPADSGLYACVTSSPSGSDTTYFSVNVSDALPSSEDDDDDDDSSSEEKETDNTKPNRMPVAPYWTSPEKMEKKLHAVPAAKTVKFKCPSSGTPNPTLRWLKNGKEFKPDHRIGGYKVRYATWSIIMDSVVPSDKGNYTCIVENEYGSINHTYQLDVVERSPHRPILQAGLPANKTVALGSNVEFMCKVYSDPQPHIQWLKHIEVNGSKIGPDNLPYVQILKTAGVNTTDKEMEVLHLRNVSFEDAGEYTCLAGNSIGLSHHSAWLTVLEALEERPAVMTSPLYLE
# What was measured:
# FGFR1 [1] = settings: preclinical studies; higher affinity for FGFR1 than for other FGFR subtypes; cited from earlier work
# Text: To assess FGFR aberration status, tissue specimens generally need to be collected via invasive procedures, such as surgery or biopsy. These approaches may be limited by heterogeneity, tumor stage, the invasiveness of the procedure, long operating time and the functional status of patients’ major organs. To overcome the inconvenience of invasive operations, molecular imaging has emerged as a noninvasive method to detect FGFR expression in tumors at the cellular or subcellular level ([23]–[25]), which are different from traditional anatomic imaging. […].
# FGFR1 [2] = target: T1, FGFR1; experiment: saturation binding assay on RT-112 cells (radioligand)
Kd (FGFR1 [2]),Molecule,IC50 (FGFR1 [1])
,AZD4547,< 1 nM
190 nM,{NOTA-PEG2′}-KAEWKSLGEEAWHSK (also: Al18F complexed by NOTA) [[18F]F-FGFR1 peptide (NOTA-PEG2-KAEWKSLGEEAWHSK)],
